According to BigSolDB 2.1:

N#Cc1ccc([N+](=O)[O-])cc1
solubility (mole fraction) (in ethanol, 278.15 K): 0.00255
solubility (mole fraction) (in ethanol, 283.15 K): 0.00302
solubility (mole fraction) (in ethanol, 288.15 K): 0.00376
solubility (mole fraction) (in ethanol, 293.15 K): 0.00454
solubility (mole fraction) (in ethanol, 298.15 K): 0.00556
solubility (mole fraction) (in ethanol, 303.15 K): 0.00672
solubility (mole fraction) (in ethanol, 308.15 K): 0.00821
solubility (mole fraction) (in ethanol, 313.15 K): 0.00984
solubility (mole fraction) (in ethanol, 318.15 K): 0.0116
solubility (mole fraction) (in ethyl acetate, 278.15 K): 0.0404
solubility (mole fraction) (in ethyl acetate, 283.15 K): 0.0463
solubility (mole fraction) (in ethyl acetate, 288.15 K): 0.0538
solubility (mole fraction) (in ethyl acetate, 293.15 K): 0.0619
solubility (mole fraction) (in ethyl acetate, 298.15 K): 0.0721
solubility (mole fraction) (in ethyl acetate, 303.15 K): 0.0842
solubility (mole fraction) (in ethyl acetate, 308.15 K): 0.1
solubility (mole fraction) (in ethyl acetate, 313.15 K): 0.119
solubility (mole fraction) (in ethyl acetate, 318.15 K): 0.142
solubility (mole fraction) (in isopropanol, 278.15 K): 0.00162
solubility (mole fraction) (in isopropanol, 283.15 K): 0.00196
solubility (mole fraction) (in isopropanol, 288.15 K): 0.00246
solubility (mole fraction) (in isopropanol, 293.15 K): 0.00304
solubility (mole fraction) (in isopropanol, 298.15 K): 0.00374
solubility (mole fraction) (in isopropanol, 303.15 K): 0.0046
solubility (mole fraction) (in isopropanol, 308.15 K): 0.00572
solubility (mole fraction) (in isopropanol, 313.15 K): 0.00708
solubility (mole fraction) (in isopropanol, 318.15 K): 0.00877
solubility (mole fraction) (in methanol, 278.15 K): 0.0032
solubility (mole fraction) (in methanol, 283.15 K): 0.0037
solubility (mole fraction) (in methanol, 288.15 K): 0.00448
solubility (mole fraction) (in methanol, 293.15 K): 0.00541
solubility (mole fraction) (in methanol, 298.15 K): 0.00652
solubility (mole fraction) (in methanol, 303.15 K): 0.00788
solubility (mole fraction) (in methanol, 308.15 K): 0.00955
solubility (mole fraction) (in methanol, 313.15 K): 0.0115
solubility (mole fraction) (in methanol, 318.15 K): 0.0135
solubility (mole fraction) (in n-propanol, 278.15 K): 0.00227
solubility (mole fraction) (in n-propanol, 283.15 K): 0.00271
solubility (mole fraction) (in n-propanol, 288.15 K): 0.0033
solubility (mole fraction) (in n-propanol, 293.15 K): 0.00407
solubility (mole fraction) (in n-propanol, 298.15 K): 0.00505
solubility (mole fraction) (in n-propanol, 303.15 K): 0.00619
solubility (mole fraction) (in n-propanol, 308.15 K): 0.00758
solubility (mole fraction) (in n-propanol, 313.15 K): 0.00908
solubility (mole fraction) (in n-propanol, 318.15 K): 0.0108
